From patent US8778941B2, “TRPM8 antagonists and their use in treatments” (AMGEN Inc., priority 2011, dated 2014)

Target: T1, human TRPM8 (Homo sapiens, UniProt Q7Z2W7)
T1 construct: expressed in transfected cells; host or cells: Chinese hamster ovary (CHO) cells, T-REx tetracycline-inducible expression system (Invitrogen), co-transfected with pcDNA3.1 jellyfish aequorin
Experiment: Luminescence readout assay for measuring intracellular calcium (aequorin), hTRPM8 antagonism
Type: cell-based
Details: CHO cell line expressing human TRPM8 and aequorin; activation by icilin, L-menthol or cold buffer (table does not say which)
Protocol: Luminescence Readout Assay for Measuring Intracellular Calcium.
A stable Chinese hamster ovary cell line expressing human TRPM8 was generated using tetracycline inducible T-REx™ expression system from Invitrogen, Inc. (Carlsbad, Calif.). […] Twenty four hours before the assay, cells were seeded in 96-well plates and TRPM8 expression was induced with 0.5 μg/mL tetracycline. […] Potential antagonists were added 2.5 min prior to the addition of agonist, […], 100 µM L-menthol, or 1 min prior to the addition of cold buffer (<10° C.). The luminescence was measured by a CCD camera based FLASH-luminometer built by Amgen, Inc. A cooling device attached to FLASH luminometer was used for cold activation.

T1 sequence (Q7Z2W7 whole entry): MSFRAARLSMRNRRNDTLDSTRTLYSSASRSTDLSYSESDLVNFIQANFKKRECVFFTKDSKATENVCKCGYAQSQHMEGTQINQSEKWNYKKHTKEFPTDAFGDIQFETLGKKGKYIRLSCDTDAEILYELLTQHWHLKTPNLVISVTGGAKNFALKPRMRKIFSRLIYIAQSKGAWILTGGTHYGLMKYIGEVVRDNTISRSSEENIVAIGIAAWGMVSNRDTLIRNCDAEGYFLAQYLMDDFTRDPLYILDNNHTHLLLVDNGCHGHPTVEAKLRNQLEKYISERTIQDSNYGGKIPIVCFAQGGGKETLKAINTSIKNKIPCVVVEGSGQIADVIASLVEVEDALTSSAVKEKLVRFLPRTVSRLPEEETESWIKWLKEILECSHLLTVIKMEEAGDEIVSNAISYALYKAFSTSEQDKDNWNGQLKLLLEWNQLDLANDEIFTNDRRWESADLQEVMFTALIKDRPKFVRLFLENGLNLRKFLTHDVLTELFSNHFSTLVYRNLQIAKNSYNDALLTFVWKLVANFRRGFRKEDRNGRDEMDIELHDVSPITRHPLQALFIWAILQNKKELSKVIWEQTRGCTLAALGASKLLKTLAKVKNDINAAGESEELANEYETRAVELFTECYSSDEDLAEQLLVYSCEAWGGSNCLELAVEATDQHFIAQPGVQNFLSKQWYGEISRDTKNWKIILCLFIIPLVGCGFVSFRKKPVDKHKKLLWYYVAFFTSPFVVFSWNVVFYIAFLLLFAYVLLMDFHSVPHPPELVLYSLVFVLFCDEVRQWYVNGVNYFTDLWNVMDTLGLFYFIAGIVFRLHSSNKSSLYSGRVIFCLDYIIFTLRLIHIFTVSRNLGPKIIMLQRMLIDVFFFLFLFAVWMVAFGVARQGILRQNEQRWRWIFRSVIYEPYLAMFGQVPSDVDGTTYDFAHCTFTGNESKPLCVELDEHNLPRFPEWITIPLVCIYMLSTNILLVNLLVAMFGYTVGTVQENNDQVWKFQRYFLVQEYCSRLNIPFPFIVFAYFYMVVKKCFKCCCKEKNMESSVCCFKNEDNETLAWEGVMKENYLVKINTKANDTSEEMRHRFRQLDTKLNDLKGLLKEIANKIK

| SMILES | IC50 |
| --- | --- |
| Cc1noc(C)c1NC(=O)N[C@@H](c1ccc(C(F)(F)F)cc1)c1ncccc1C(F)(F)F [Example 55, (S)-1-(3,5-dimethylisoxazol-4-yl)-3-((4-(trifluoro-methyl)-phenyl)(3-(trifluoro-methyl)-pyridin-2-yl)-metyl)urea] | 0.05 µM |
| O=C(Nc1cccc(Br)c1)N[C@@H](c1ccc(C(F)(F)F)cc1)c1ncccc1C(F)(F)F [Example 37, (S)-1-(3-bromophenyl)-3-((4-(trifluoro-methyl)-phenyl)(3-(trifluoro-methyl)-pyridin-2-yl)-methyl)urea (2,2,2-trifluoro-acetate)] | 4.08 µM |
| O=C(NCc1ccc(Br)cc1)N[C@@H](c1ccc(C(F)(F)F)cc1)c1ncccc1C(F)(F)F [Example 125, (S)-1-(4-bromobenzyl)-3-((4-(trifluoro-methyl)-phenyl)(3-(trifluoro-methyl)-pyridin-2-yl)-methyl)urea (2,2,2-trifluoro-acetate)] | 0.561 µM |
| COC(=O)c1cccc(NC(=O)N[C@@H](c2ccc(C(F)(F)F)cc2)c2ncccc2C(F)(F)F)c1 [Example 102, (S)-methyl 3-(3-((4-(trifluoro-methyl)-phenyl)(3-(trifluoro-methyl)-pyridin-2-yl)-methyl)-ureido)-benzoate (2,2,2-trifluoro-acetate)] | 0.262 µM |
| O=C1Cc2ccc(NC(=O)N[C@@H](c3ccc(C(F)(F)F)cc3)c3ncccc3F)cc2N1 [Example 166, (S)-1-((3-fluoropyridin-2-yl)(4-(trifluoro-methyl)-phenyl)-methyl)-3-(2-oxoindolin-6-yl)urea] | 0.086 µM |
| O=C(Nc1c(F)cccc1F)N[C@@H](c1ccc(C(F)(F)F)cc1)c1ncccc1C(F)(F)F [Example 50, (S)-1-(2,6-difluoro-phenyl)-3-((4-(trifluoro-methyl)-phenyl)(3-(trifluoro-methyl)-pyridin-2-yl)-methyl)urea] | 0.209 µM |
| CCOC(=O)CCCNC(=O)N[C@@H](c1ccc(C(F)(F)F)cc1)c1ncccc1C(F)(F)F [Example 68, (S)-ethyl 4-(3-((4-(trifluoro-methyl)-phenyl)(3-(trifluoro-methyl)-pyridin-2-yl)-methyl)-ureido)-butanoate (2,2,2-trifluoro-acetate)] | 0.881 µM |
| O=C(NC1CCCOC1)N[C@@H](c1ccc(C(F)(F)F)cc1)c1ncccc1C(F)(F)F (stereo partly drawn) [Example 54, 1-(tetrahydro-2H-pyran-3-yl)-3-((S)-(4-(trifluoro-methyl)-phenyl)(3-(trifluoro-methyl)-pyridin-2-yl)-methyl)urea] | 0.397 µM |
| COc1cccc([C@H](NC(=O)Nc2cccnc2)c2ncccc2C(F)(F)F)c1 [Example 4, (S)-1-((3-methoxy-phenyl)(3-(trifluoro-methyl)-pyridin-2-yl)-methyl)-3-(pyridin-3-yl)-urea] | 1.23 µM |
| O=C(Nc1ccc2occc2c1)N[C@@H](c1ccc(C(F)(F)F)cc1)c1ncccc1C(F)(F)F [Example 39, (S)-1-(benzofuran-5-yl)-3-((4-(trifluoro-methyl)-phenyl)(3-(trifluoro-methyl)-pyridin-2-yl)-methyl)urea (2,2,2-trifluoro-acetate)] | 4.09 µM |
| O=C(NCC1CCS(=O)(=O)C1)N[C@@H](c1ccc(C(F)(F)F)cc1)c1ncccc1C(F)(F)F (stereo partly drawn) [Example 64, 1-((3- Sulfonylcyclopentyl)-methyl)-3-((S)-(4-(trifluoro-methyl)-phenyl)(3-(trifluoro-methyl)-pyridin-2-yl)-methyl)urea (2,2,2-trifluoro-acetate)] | 5.65 µM |
| CC(C)(C)OC(=O)N[C@@H](c1ccc(C(F)(F)F)cc1)c1ncccc1Br [Example 173, (S)-tert-Butyl((3-bromopyridin-2-yl)(4-(trifluoromethyl)-phenyl)methyl)carbamate] | 0.299 µM |
| O=C(NCc1ccc(Cl)cc1)N[C@@H](c1ccc(C(F)(F)F)cc1)c1ncccc1C(F)(F)F [Example 134, (S)-1-(4-chlorobenzyl)-3-((4-(trifluoro-methyl)-phenyl)(3-(trifluoro-methyl)-pyridin-2-yl)-methyl)urea (2,2,2-trifluoro-acetate)] | 1.07 µM |
| CC(C)(C)NC(=S)N[C@@H](c1ccc(C(F)(F)F)cc1)c1ncccc1C(F)(F)F [Example 123, (S)-1-tert-butyl-3-((4-(trifluoro-methyl)-phenyl)(3-(trifluoro-methyl)-pyridin-2-yl)-methyl)-thiourea] | 0.19 µM |
| Cc1cc(C)cc(NC(=O)N[C@@H](c2ccc(C(F)(F)F)cc2)c2ncccc2C(F)(F)F)c1 [Example 106, (S)-1-(3,5-dimethylphenyl)-3-((4-(trifluoro-methyl)-phenyl)(3-(trifluoro-methyl)-pyridin-2-yl)-methyl)urea (2,2,2-trifluoro-acetate)] | 0.494 µM |

Continued by falling IC50, values first:

| IC50 | SMILES |
| --- | --- |
| 2.28 µM | O=C(Nc1ccc(F)cc1F)N[C@@H](c1ccc(C(F)(F)F)cc1)c1ncccc1C(F)(F)F [Example 48, (S)-1-(2,4-difluoro-phenyl)-3-((4-(trifluoro-methyl)-phenyl)(3-(trifluoro-methyl)-pyridin-2-yl)-methyl)urea] |
| 0.739 µM | O=C(NC1CCCc2ccccc21)N[C@@H](c1ccc(C(F)(F)F)cc1)c1ncccc1C(F)(F)F (stereo partly drawn) [Example 185, 1-(1,2,3,4-tetrahydro-naphthalen-1-yl)-3-((S)-(4-(trifluoromethyl)phenyl)(3-(trifluoromethyl)pyridin-2-yl)methyl)urea (2,2,2-trifluoro-acetate)] |
| 0.708 µM | O=C(Nc1cccc(I)c1)N[C@@H](c1ccc(C(F)(F)F)cc1)c1ncccc1C(F)(F)F [Example 124, (S)-1-(3-iodophenyl)-3-((4-(trifluoro-methyl)-phenyl)(3-(trifluoro-methyl)-pyridin-2-yl)-methyl)urea (2,2,2-trifluoro-acetate)] |
| 0.674 µM | O=C(Nc1cccnc1)NC(c1cc(F)cc(Cl)c1)c1ncccc1F (centres unmarked) [Example 24, 1-((3-chloro-5-fluoro-phenyl)(3-fluoropyridin-2-yl)methyl)-3-(pyridin-3-yl)urea (2,2,2-trifluoro-acetate)] |
| 0.39 µM | O=C(NCCc1ccc2c(c1)OCO2)N[C@@H](c1ccc(C(F)(F)F)cc1)c1ncccc1C(F)(F)F [Example 36, (S)-1-(2-(benzo[d][1,3]dioxol-5-yl)-ethyl)-3-((4-(trifluoro-methyl)-phenyl)(3-(trifluoro-methyl)-pyridin-2-yl)-methyl)urea (2,2,2-trifluoro-acetate)] |
| 0.248 µM | O=C(Nc1cccnc1)N[C@@H](c1ccc(Cl)cc1)c1ncccc1C(F)(F)F [Example 26, (S)-1-((4-chlorophenyl)-(3-(trifluoro-methyl)-pyridin-2-yl)-methyl)-3-(pyridin-3-yl)-urea] |
| 0.108 µM | CCc1cccc(CC)c1NC(=O)N[C@@H](c1ccc(C(F)(F)F)cc1)c1ncccc1C(F)(F)F [Example 88, (S)-1-(2,6-diethylphenyl)-3-((4-(trifluoro-methyl)-phenyl)(3-(trifluoro-methyl)-pyridin-2-yl)-methyl)urea (2,2,2-trifluoro-acetate)] |
| 0.076 µM | O=C(Nc1ccc[nH]c1=O)N[C@@H](c1ccc(C(F)(F)F)cc1)c1ncccc1F [Example 163, (S)-1-((3-fluoropyridin-2-yl)(4-(trifluoro-methyl)-phenyl)-methyl)-3-(2-oxo-1,2-dihydropyridin-3-yl)urea] |
